ClCc1ccc(Cl)nc1
Conditions | solubility (mole fraction)
in acetone, 278.85 K | 0.0226
in acetone, 281.75 K | 0.0249
in acetone, 283.55 K | 0.0267
in acetone, 284.65 K | 0.0278
in acetone, 288.95 K | 0.0325
in acetone, 291.15 K | 0.0353
in acetone, 293.65 K | 0.0385
in acetone, 295.85 K | 0.0415
in acetone, 297.65 K | 0.0442
in acetone, 300.35 K | 0.0486
in acetone, 302.95 K | 0.0528
in acetone, 304.85 K | 0.0566
in acetone, 307.05 K | 0.0604
in chloroform, 275.85 K | 0.0164
in chloroform, 279.35 K | 0.0204
in chloroform, 281.55 K | 0.0235
in chloroform, 284.35 K | 0.028
in chloroform, 287.45 K | 0.0339
in chloroform, 290.35 K | 0.0405
in chloroform, 292.95 K | 0.0473
in chloroform, 295.25 K | 0.0546
in chloroform, 297.65 K | 0.063
in chloroform, 298.55 K | 0.0665
in chloroform, 300.45 K | 0.0745
in chloroform, 302.75 K | 0.0858
in chloroform, 306.95 K | 0.109
in ethanol, 277.65 K | 0.00332
in ethanol, 279.75 K | 0.00365
in ethanol, 282.05 K | 0.00406
in ethanol, 284.75 K | 0.00456
in ethanol, 287.35 K | 0.00521
in ethanol, 289.65 K | 0.00576
in ethanol, 292.65 K | 0.00661
in ethanol, 295.35 K | 0.00749
in ethanol, 298.35 K | 0.00859
in ethanol, 301.85 K | 0.0102
in ethanol, 304.15 K | 0.0112
in ethanol, 305.85 K | 0.012
in ethanol, 307.25 K | 0.0127
in ethyl acetate, 278.35 K | 0.00447
in ethyl acetate, 280.05 K | 0.00488
in ethyl acetate, 281.65 K | 0.0053
in ethyl acetate, 284.75 K | 0.00619
in ethyl acetate, 286.25 K | 0.00667
in ethyl acetate, 288.15 K | 0.00731
in ethyl acetate, 290.45 K | 0.00825
in ethyl acetate, 292.95 K | 0.00939
in ethyl acetate, 296.15 K | 0.011
in ethyl acetate, 299.05 K | 0.0125
in ethyl acetate, 302.95 K | 0.0153
in ethyl acetate, 305.35 K | 0.0167
in ethyl acetate, 306.45 K | 0.0176
in ethyl acetate, 307.45 K | 0.0184
in methanol, 277.25 K | 0.00235
in methanol, 281.35 K | 0.00277
in methanol, 282.75 K | 0.00296
in methanol, 284.35 K | 0.00319
in methanol, 288.85 K | 0.00392
in methanol, 292.75 K | 0.00468
in methanol, 296.05 K | 0.00537
in methanol, 299.25 K | 0.00607
in methanol, 303.75 K | 0.00722
in methanol, 305.35 K | 0.00768
in methanol, 306.55 K | 0.00803
in toluene, 278.75 K | 0.0191
in toluene, 281.55 K | 0.0249
in toluene, 283.25 K | 0.0293
in toluene, 287.35 K | 0.043
in toluene, 288.15 K | 0.0464
in toluene, 290.75 K | 0.059
in toluene, 292.15 K | 0.0671
in toluene, 293.75 K | 0.0776
in toluene, 295.45 K | 0.0906
in toluene, 297.75 K | 0.111
in toluene, 301.65 K | 0.158
in toluene, 305.55 K | 0.223
in water, 277.75 K | 0.000167
in water, 280.25 K | 0.000174
in water, 283.75 K | 0.000197
in water, 288.35 K | 0.000215
in water, 292.15 K | 0.000234
in water, 294.25 K | 0.000249
in water, 297.65 K | 0.000265
in water, 301.25 K | 0.000288
in water, 302.95 K | 0.000295
in water, 304.25 K | 0.000308
in water, 305.85 K | 0.00032
in water, 308.75 K | 0.000332
in water, 309.15 K | 0.00034
